Measured values taken from patent publication US20240041856A1, “LIQUID APIXABAN FORMULATION IN SMALL DOSE VOLUME” (DAFECHEM LIMITED, priority 2020, published 2024).

Legend:
[1] = Stability of apixaban in propylene glycol on heating; type: physicochemical; conditions: temperature increase up to 90° C.
Experimental: (§1) However, for achieving solutions of apixaban with concentration of more than 0.5 mg/mL in a vehicle comprising at least 35% (w/v) propylene glycol based on the total formulation, heating within the range of 25-90° C. is applied so to achieve full and quick solubilization of apixaban.

[2] = Solubility of apixaban in propylene glycol based vehicles; type: physicochemical
Experimental: as §1
Concentrated solutions of apixaban are necessary in order to achieve low dosage volumes. The temperature of the mixture of apixaban and optionally co-solvents can be up to 90° C.

COc1ccc(-n2nc(C(N)=O)c3c2C(=O)N(c2ccc(N4CCCCC4=O)cc2)CC3)cc1 [Apixaban, 1-(4-methoxyphenyl)-7-oxo-6-[4-(2-oxopiperidin-1-yl)phenyl]-4,5,6,7-tetrahydro-1H-pyrazolo[3,4c]pyridine-3-carboxamide]
Stability of apixaban in propylene glycol [1]: stable
Dissolution of apixaban in the vehicle ([2]; 0.25 mg/mL apixaban, vehicle with at least 35% (w/v) propylene glycol, room temperature): dissolves freely
Most concentrated apixaban solutions prepared ([2]; dissolving at temperature up to 90° C. in at least 35% (w/v) of propylene glycol): up to 10 mg/mL
